# Assay results from patent US4797284A, “Transdermal drug delivery system” (Merck & Co., Inc., priority 1986, dated 1989).
# Columns and labels:
# Type in all cases: physicochemical
# [1] = diffusion coefficient of drug in the reservoir (Dr), release from drug-bearing film into stirred receptor solution; settings: 30 percent w/w vinyl acetate-acrylate copolymer in 53:11:36 ethyl acetate:toluene:ethanol (Gelva RA-737); timolol free base
# Experimental: When a solid reservoir is employed, the diffusion coefficient of the drug in the reservoir, Dr, is determined by first dissolving the drug to be used in a solution of matrix-forming polymer at a concentration below the saturation solubility of the drug in the polymer solution, and then coating the solution and allowing the coating to dry or curing the coating to form a drug bearing film. The coating may be made on a releasable surface so that a free film is employed in the diffusion coefficient determination or may be made on an impermeable backing material in which case the film with backing is employed in making the determination. […] The receptor solution, which is maintained at a constant temperature, preferably 32° C., is sampled at appropriate intervals and quantitative determination of drug concentration made by HPLC (high pressure liquid chromatography) with UV detection or by other suitable means based on the physical-chemical characteristics of the drug. The value for Dr is then determined by a nonlinear regression fit of observed data to either the earlier time or the late time approximation as is appropriate for drug release from a continuous matrix containing only dissolved drug as discussed in Baker et al, "Controlled Release: Mechanisms and Rates" in Advances in Experimental Medicine and Biology, Vol 47, page 41, Eds. Tanquary et al, Plenum Press, N.Y., 1974. […]
# [2] = diffusion coefficient of drug in the membrane (Dm), side-by-side diffusion cell; settings: 7.5 percent ethylene vinyl acetate copolymer film (PE-75)
# Experimental: The diffusion coefficient of drug in the membrane, Dm or Dm', is determined by mounting the membrane between two chambers of a side-by-sidediffusion cell. A determined amount of drug in solution (donor phase) is placed in one chamber and a receptor solvent in the other, into which the drug diffuses and in which it will remain substantially below its saturation solubility (receptor phase). The cells are stirred while maintained in a constant temperature bath, preferably at 32° C. The receptor phase is sampled from time to time and assayed for drug, and steady state flux through the membrane calculated. Km, the partition coefficient between the donor solution and membrane, is determined by equilibrating a known volume of donor solution at 32° C., then assaying the solution for change in drug concentration to determine partitioning between membrane and donor. The diffusion coefficient of the drug in the membrane is calculated from the steady state Fick's law equation, which for semi-permeable membrane is
# Initially, Dr was determined for timolol in a commercially available acrylate film-forming material, a 30 percent weight/weight (w/w) vinyl acetate-acrylate copolymer in 53:11:36 ethyl acetate:toluene:ethanol solvent (Gelva® RA-737 multipolymer solution obtained from Monsanto) in the manner previously described. […]
# [3] = crystallization of dissolved drug in unitary solid reservoir of dissolved and undissolved drug
# Text: Generally, the structure of a transdermal bandage or device consists of (a) a transdermal delivery system comprising an impermeable backing, a drug-containing reservoir, a rate-controlling membrane on the side to be ultimately proximate to the skin of the patient and (b) a means of attaching the system to the dermal surface. In the known systems, the reservoir, the source of supply for the drug, whether a single solid unit, a walled unit or a unit employing drug containing micro-capsules within the reservoir structure, contains the drug partly in particulate form and partly in solution i.e., contains drug in excess of its saturation solubility. During use, the drug in solution migrates to the permeable membrane surface, passes through the membrane and onto the skin for absorption. As the dissolved drug passes through the membrane some of the undissolved drug dissolves and there is, until the supply of undissolved drug is exhausted, a mixture of both dissolved and undissolved drug in the reservoir. The presence of dissolved and undissolved drug is considered necessary to provide for the near zero order rate of delivery, zero order being the rate of delivery which is constant or independent of time. […]
structure (smiles),measurement,setting,value
CC(C)(C)NC[C@H](O)COc1nsnc1N1CCOCC1 [timolol],Dr (diffusion coefficient of drug in reservoir),[1],1.58×10^-6 cm^2 /hour
same,Dm (diffusion coefficient of drug in membrane),[2],2.85×10^-6 cm^2 /hour
same,crystallization of dissolved drug after fabrication,[3],the dissolved drug often slowly crystallizes subsequent to fabrication
